Measurements published in ChEMBL document CHEMBL5727449, “Toll-like receptor 7 (TLR7) agonists having heteroatom-linked aromatic moieties, conjugates thereof, and methods and uses therefor” (2019).

molecular target: T1, Toll-like receptor 7 (Homo sapiens, UniProt Q9NYK1); experiment: HEK-Blue™ TLR7 cells were added to each well of a 384-well tissue-culture plate (15,000 cells per well) and incubated 16-18 h at 37° C., 5% CO2. Compounds (100 nl) were dispensed into wells containing the HEK-Blue™ TLR cells and the treated cells were incubated at 37° C., 5% CO2. After 18 h treatment ten microliters of freshly-prepared Quanti-Blue™ reagent (Invivogen) was added to each well, incubated for 30 min (37° C., 5% CO2) and SEAP levels measured using an Envision plate reader (OD=620 nm).
T1 sequence (Q9NYK1 whole entry): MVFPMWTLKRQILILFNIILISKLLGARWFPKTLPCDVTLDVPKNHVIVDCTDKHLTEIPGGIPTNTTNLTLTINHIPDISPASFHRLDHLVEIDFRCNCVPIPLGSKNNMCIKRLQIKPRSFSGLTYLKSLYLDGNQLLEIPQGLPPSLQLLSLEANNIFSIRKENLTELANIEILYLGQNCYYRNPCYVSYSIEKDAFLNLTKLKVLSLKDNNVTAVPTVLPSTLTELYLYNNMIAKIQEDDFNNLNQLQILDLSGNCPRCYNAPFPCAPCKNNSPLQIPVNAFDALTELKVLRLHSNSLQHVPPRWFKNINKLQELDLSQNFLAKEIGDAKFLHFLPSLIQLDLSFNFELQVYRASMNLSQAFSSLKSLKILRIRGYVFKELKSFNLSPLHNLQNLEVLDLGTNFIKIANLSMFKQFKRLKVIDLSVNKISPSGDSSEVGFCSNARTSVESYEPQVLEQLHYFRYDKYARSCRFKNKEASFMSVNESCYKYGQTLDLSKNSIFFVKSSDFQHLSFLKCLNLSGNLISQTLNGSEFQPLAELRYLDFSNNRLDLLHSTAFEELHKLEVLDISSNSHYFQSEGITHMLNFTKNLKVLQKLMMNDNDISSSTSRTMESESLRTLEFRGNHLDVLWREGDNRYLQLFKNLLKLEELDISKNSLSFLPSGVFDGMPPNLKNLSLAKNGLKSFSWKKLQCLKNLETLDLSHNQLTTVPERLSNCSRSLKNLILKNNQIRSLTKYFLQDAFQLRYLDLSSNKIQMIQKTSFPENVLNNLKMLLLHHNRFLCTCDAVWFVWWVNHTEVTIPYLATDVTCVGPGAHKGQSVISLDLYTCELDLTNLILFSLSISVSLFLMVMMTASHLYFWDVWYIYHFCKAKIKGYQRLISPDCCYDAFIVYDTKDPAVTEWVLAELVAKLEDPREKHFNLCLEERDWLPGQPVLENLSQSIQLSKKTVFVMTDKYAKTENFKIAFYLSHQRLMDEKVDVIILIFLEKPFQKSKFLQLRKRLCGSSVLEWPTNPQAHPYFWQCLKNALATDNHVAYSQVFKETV

| Structure (SMILES) | EC50 |
| --- | --- |
| CCCCOc1nc(N)c2nc(O)n(Cc3cccc(Oc4cccc(CNC5CCC5)c4)c3)c2n1 | 435 nM |
| CCCCOc1nc(N)c2nc(O)n(Cc3ccc(Oc4ccc(CN5CCC5)cc4)c(F)c3)c2n1 | 1.12 nM |
| CCCCOc1nc(N)c2nc(O)n(Cc3ccc(Oc4ccc(CNCC(C)C)nc4)nc3)c2n1 | 2.22 nM |
| CCCCOc1nc(N)c2nc(O)n(Cc3ccc(Oc4cccc(CNCC(C)C)n4)cc3)c2n1 | 2.4 nM |
| CCCCOc1nc(N)c2nc(O)n(Cc3ccc(Oc4ccc(CNCC(C)C)cc4)c(F)c3)c2n1 | 0.45 nM |
| CCCCOc1nc(N)c2nc(O)n(Cc3ccc(Nc4ccc(CN5CCCC5)cc4)nc3)c2n1 | 1.56 nM |
| CCCCOc1nc(N)c2nc(O)n(Cc3ccc(Oc4ccc(CNC5CCOCC5)nc4)nc3)c2n1 | 1.12 nM |
| CCCCOc1nc(N)c2nc(O)n(Cc3ccc(Oc4ccc(CNC5CCOCC5)cc4)c(F)c3)c2n1 | 1.2 nM |
| CCCCOc1nc(N)c2nc(O)n(Cc3ccc(Oc4ccc(CNCCOC)cc4)c(F)c3)c2n1 | 1.14 nM |
| CCCCOc1nc(N)c2nc(O)n(Cc3ccc(Oc4cccc(CNCCC#N)n4)cc3)c2n1 | 3.57 nM |
| CCCCOc1nc(N)c2nc(O)n(Cc3ccc(Oc4ccc(CNCCO)nc4)nc3)c2n1 | 1.6 nM |
| CCCCOc1nc(N)c2nc(O)n(Cc3ccc(Oc4ccc(CN5CCN(C)CC5)nc4)nc3)c2n1 | 1.77 nM |
| CCCCOc1nc(N)c2nc(O)n(Cc3cccc(Oc4cccc(CNC)c4)c3)c2n1 | 455 nM |
| CCCCOc1nc(N)c2nc(O)n(Cc3ccc(Oc4ccc(CNCC(F)F)nc4)nc3)c2n1 | 1.8 nM |
| CCCCOc1nc(N)c2nc(O)n(Cc3cccc(Oc4cccc(CNCCC#N)c4)c3)c2n1 | 279 nM |
| CCCCOc1nc(N)c2nc(O)n(Cc3ccc(Oc4ccc(CNCc5ccccc5)cc4)cc3)c2n1 | 13 nM |
| CCCCOc1nc(N)c2nc(O)n(Cc3cccc(Oc4cccc(CN5CCNCC5)c4)c3)c2n1 | 942 nM |
| CCCCOc1nc(N)c2nc(O)n(Cc3cccc(Oc4cccc(CNCCS(C)(=O)=O)c4)c3)c2n1 | 154 nM |
| CCCCOc1nc(N)c2nc(O)n(Cc3ccc(Nc4ccc(CNCC(F)F)cc4)nc3)c2n1 | 7.46 nM |

| Structure (SMILES) | EC50 |
| --- | --- |
| CCCCOc1nc(N)c2nc(O)n(Cc3ccc(Oc4ccc(CN5CCN(C)CC5)cc4)c(F)c3)c2n1 | 2.9 nM |
| CCCCOc1nc(N)c2nc(O)n(Cc3ccc(Oc4ccc(CN5CCOCC5)nc4)nc3)c2n1 | 0.89 nM |
| CCCCOc1nc(N)c2nc(O)n(Cc3ccc(Nc4ccc(CNCCO)cc4)nc3)c2n1 | 5.8 nM |
| CCCCOc1nc(N)c2nc(O)n(Cc3ccc(Nc4ccc(CNCCS(C)(=O)=O)cc4)nc3)c2n1 | 0.374 nM |
| CCCCOc1nc(N)c2nc(O)n(Cc3ccc(Oc4ccc(CN5CCOCC5)cc4)c(F)c3)c2n1 | 3.9 nM |
| CCCCOc1nc(N)c2nc(O)n(Cc3cccc(Oc4cccc(CNC5COC5)c4)c3)c2n1 | 403 nM |
| CCCCOc1nc(N)c2nc(O)n(Cc3cccc(Oc4cccc(CNC5CC(F)(F)C5)c4)c3)c2n1 | 525 nM |
| CCCCOc1nc(N)c2nc(O)n(Cc3ccc(Oc4ccc(CNCc5ccccc5)cc4)nc3)c2n1 | 5.3 nM |
| CCCCOc1nc(N)c2nc(O)n(Cc3ccc(Oc4ccc(CNCCO)cc4)cc3)c2n1 | 1.4 nM |
| CCCCOc1nc(N)c2nc(O)n(Cc3ccc(Nc4ccc(CNCC(C)(C)O)cc4)nc3)c2n1 | 3.2 nM |
| CCCCOc1nc(N)c2nc(O)n(Cc3ccc(Nc4ccc(CNCC(C)C)cc4)nc3)c2n1 | 7.5 nM |
| CCCCOc1nc(N)c2nc(O)n(Cc3ccc(Nc4ccc(CNCCOC)cc4)nc3)c2n1 | 1.19 nM |
| CCCCOc1nc(N)c2nc(O)n(Cc3cccc(Oc4cccc(CNCCO)c4)c3)c2n1 | 375 nM |
| CCCCOc1nc(N)c2nc(O)n(Cc3ccc(Nc4ccc(CNC5CCC5)cc4)nc3)c2n1 | 1.23 nM |
| CCCCOc1nc(N)c2nc(O)n(Cc3ccc(Nc4ccc(CNC5CCOCC5)cc4)nc3)c2n1 | 4.3 nM |
| CCCCOc1nc(N)c2nc(O)n(Cc3ccc(Nc4ccc(CN5CCN(C)CC5)cc4)nc3)c2n1 | 4.2 nM |
| CCCCOc1nc(N)c2nc(O)n(Cc3ccc(Oc4ccc(CNCCOC)nc4)nc3)c2n1 | 0.96 nM |
| CCCCOc1nc(N)c2nc(O)n(Cc3ccc(Oc4ccc(CNCCO)cc4)c(F)c3)c2n1 | 0.46 nM |
| CCCCOc1nc(N)c2nc(O)n(Cc3ccc(Oc4ccc(CNCC(F)F)cc4)c(F)c3)c2n1 | 1.8 nM |

More lines, now with the values ahead:

| EC50 | Structure (SMILES) |
| --- | --- |
| 12 nM | CCCCOc1nc(N)c2nc(O)n(Cc3ccc(Oc4ccc(CO)cc4)nc3)c2n1 |
| 1.2 nM | CCCCOc1nc(N)c2nc(O)n(Cc3ccc(Oc4ccc(CNC)cc4)nc3)c2n1 |
| 0.35 nM | CCCCOc1nc(N)c2nc(O)n(Cc3ccc(Oc4ccc(CNCCC#N)cc4)nc3)c2n1 |
| 0.91 nM | CCCCOc1nc(N)c2nc(O)n(Cc3ccc(Oc4ccc(CNC5CCC5)cc4)nc3)c2n1 |
| 2.9 nM | CCCCOc1nc(N)c2nc(O)n(Cc3ccc(Oc4ccc(CNCC(F)F)cc4)nc3)c2n1 |
| 0.7 nM | CCCCOc1nc(N)c2nc(O)n(Cc3ccc(Oc4ccc(CNC5COC5)cc4)nc3)c2n1 |
| 1.6 nM | CCCCOc1nc(N)c2nc(O)n(Cc3ccc(Oc4ccc(CNC5CCCC5)cc4)nc3)c2n1 |
| 1.7 nM | CCCCOc1nc(N)c2nc(O)n(Cc3ccc(Oc4ccc(CNC5COC5)cc4)cc3)c2n1 |
| 1.3 nM | CCCCOc1nc(N)c2nc(O)n(Cc3ccc(Oc4ccc(CNC5CC(F)(F)C5)cc4)nc3)c2n1 |
| 2.1 nM | CCCCOc1nc(N)c2nc(O)n(Cc3ccc(Oc4ccc(CNC5CC5)cc4)cc3)c2n1 |
| 1.8 nM | CCCCOc1nc(N)c2nc(O)n(Cc3ccc(Oc4ccc(CNCCS(C)(=O)=O)cc4)nc3)c2n1 |
| 2.51 nM | CCCCOc1nc(N)c2nc(O)n(Cc3ccc(Oc4cccc(CNC5CCC5)n4)cc3)c2n1 |
| 1.1 nM | CCCCOc1nc(N)c2nc(O)n(Cc3ccc(Oc4ccc(CNC(C)C)cc4)nc3)c2n1 |
| 1.1 nM | CCCCOc1nc(N)c2nc(O)n(Cc3ccc(Oc4ccc(CNCC5CC5)cc4)nc3)c2n1 |
| 1.38 nM | CCCCOc1nc(N)c2nc(O)n(Cc3ccc(Oc4ccc(CNC5CCC5)cc4)c(F)c3)c2n1 |
| 1.3 nM | CCCCOc1nc(N)c2nc(O)n(Cc3ccc(Oc4ccc(CNC5C6CC5C6)cc4)nc3)c2n1 (stereo not drawn) |
| 0.54 nM | CCCCOc1nc(N)c2nc(O)n(Cc3ccc(Oc4ccc(CNCC(C)C)cc4)nc3)c2n1 |
| 4.27 nM | CCCCOc1nc(N)c2nc(O)n(Cc3ccc(Oc4cccc(CNC5COC5)n4)cc3)c2n1 |
| 2.07 nM | CCCCOc1nc(N)c2nc(O)n(Cc3ccc(Oc4ccc(CNC5CCC5)nc4)nc3)c2n1 |
| 2.6 nM | CCCCOc1nc(N)c2nc(O)n(Cc3ccc(Oc4ccc(CNC5CCC5)cc4)cc3)c2n1 |
